Source: patent US10456379B2, “Imidazole-based antimicrobial agents” (priority 2014, dated 2019)
≈ marks a conversion by molar mass, not a printed value. Where two headings read alike, the source gives them in different places.

Key:
[1] = test system: Enterococcus faecalis (ATCC29212); assay: Broth microdilution MIC assay, Enterococcus faecalis; format: cell-based; details: read-out: Antibacterial activity, EFs (Enterococcus faecalis), MIC class
[2] = test system: vancomycin-resistant Enterococcus faecium (ATCC51559); assay: microbe, parasite or virus in culture; format: cell-based
[3] = test system: Escherichia coli TolC mutant strain ΔtolC; format: cell-based
[4] = test system: daptomycin-resistant Staphylococcus aureus (from MRSA COL); assay: Broth microdilution MIC assay, daptomycin-resistant MRSA; format: cell-based; details: 24 h, read-out: Antibacterial activity, MRSA strains with additional resistance, D (daptomycin), MIC class
[5] = test system: Streptococcus pneumoniae (Chester, ATCC49619); assay: Broth microdilution MIC assay, Streptococcus pneumoniae; format: cell-based; details: for Antibacterial activity Streptococcus pneumoniae: MIC class score, MIC100, broth microdilution; for MIC: Streptococcus pneumoniae, ATCC49619, read-out: Antibacterial activity, SP (Streptococcus pneumoniae), MIC class
[6] = test system: vancomycin-resistant Enterococcus faecalis (ATCC51575); assay: microbe, parasite or virus in culture; format: cell-based
[7] = test system: Enterococcus faecium (AGR15, ATCCBAA-2127); assay: Broth microdilution MIC assay, Enterococcus faecium; format: cell-based; details: ATCCBAA2127, read-out: Antibacterial activity, EFm (Enterococcus faecium), MIC class
[8] = test system: Staphylococcus epidermidis (PCI 1200, ATCC12228); assay: Broth microdilution MIC assay, Staphylococcus epidermidis; format: cell-based; details: read-out: Antibacterial activity, SE (Staphylococcus epidermidis), MIC class
[9] = test system: Staphylococcus aureus MSSA (Newman); assay: Broth microdilution MIC assay, Staphylococcus aureus MSSA (Newman); format: cell-based; details: MIC class score, MIC100, broth microdilution, Newman strain
[10] = test system: moenomycin-resistant Staphylococcus aureus (from MRSA COL); assay: Broth microdilution MIC assay, moenomycin-resistant MRSA; format: cell-based; details: 24 h, read-out: Antibacterial activity, MRSA strains with additional resistance, M (moenomycin), MIC class
[11] = test system: vancomycin-resistant Staphylococcus aureus (from MRSA COL); assay: Broth microdilution MIC assay, vancomycin-resistant MRSA; format: cell-based; details: 24 h, read-out: Antibacterial activity, MRSA strains with additional resistance, V (vancomycin), MIC class
[12] = test system: platensimycin-resistant Staphylococcus aureus (from MRSA COL); assay: Broth microdilution MIC assay, platensimycin-resistant MRSA; format: cell-based; details: 24 h, read-out: Antibacterial activity, MRSA strains with additional resistance, P (platensimycin), MIC class
[13] = test system: MRSA (COL) resistant to triclosan; assay: Broth microdilution MIC assay, triclosan-resistant MRSA; details: Staphylococcus aureus, read-out: Antibacterial activity, MRSA strains with additional resistance, T (triclosan), MIC class
[14] = test system: Mycobacterium smegmatis (mc(2)155); assay: Broth microdilution MIC assay, Mycobacterium smegmatis
[15] = test system: Bacillus subtilis (Marburg strain, ATCC6051); assay: microbe, parasite or virus in culture; format: cell-based; details: ATCC6051, read-out: Antibacterial activity, BS (Bacillus substilis), MIC class
[16] = test system: linezolid-resistant Staphylococcus aureus (from MRSA COL); assay: Broth microdilution MIC assay, linezolid-resistant MRSA; format: cell-based; details: 24 h, read-out: Antibacterial activity, MRSA strains with additional resistance, L (linezolid), MIC class
[17] = test system: Staphylococcus aureus MRSA (COL); assay: Broth microdilution MIC assay, Staphylococcus aureus MRSA (COL); format: cell-based; details: MIC class score, MIC100, broth microdilution, COL strain
[18] = ATCC51559, vancomycin-resistant Enterococcus faecium, read-out: Antibacterial activity, VREFm (vancomycin-resistant EFm), MIC class
[19] = ATCC51575, vancomycin-resistant Enterococcus faecalis, read-out: Antibacterial activity, VREFs (vancomycin-resistant EFs), MIC class

SMILES | MIC [1] [µg/mL] | MIC [2, 18] [µg/mL] | MIC [4] [µg/mL] | Antibacterial activity Streptococcus pneumoniae [5] | MIC [5] [µg/mL] | MIC [6, 19] [µg/mL] | MIC [10] [µg/mL] | MIC [11] [µg/mL] | MIC [12] [µg/mL] | MIC [13] [µg/mL] | Antibacterial activity, MS (Mycobacterium smegmatis), MIC class [14] | further results
CN(C)Cc1[nH]c(-c2ccc(-c3ccccc3C(F)(F)F)o2)nc1-c1ccccc1 [compound 70] | 11 to 20 (≈ 26.7 to 48.6 µM) | 11 to 20 (≈ 26.7 to 48.6 µM) | 3 to 10 (≈ 7.29 to 24.3 µM) | 3 (MIC100 of 2-5 μg/ml) | 2 to 5 (≈ 4.86 to 12.2 µM) | 11 to 20 (≈ 26.7 to 48.6 µM) |  |  |  |  |  | Antibacterial activity, EC Δ (Escherichia coli ΔtoIC), MIC class [3]: 3 (MIC100 of 3-10 μg/ml); MIC [7]: 11 to 20 µg/mL (≈ 26.7 to 48.6 µM); MIC [8]: 11 to 20 µg/mL (≈ 26.7 to 48.6 µM)
FC(F)(F)Oc1ccccc1-c1ccc(-c2nc(Cl)c(-c3ccccc3)[nH]2)o1 [compound 64] |  |  | 1 to 3 (≈ 2.47 to 7.41 µM) |  | < 1 |  | 1 to 3 (≈ 2.47 to 7.41 µM) | 1 to 3 (≈ 2.47 to 7.41 µM) |  |  |  | Antibacterial activity Staphylococcus aureus (MSSA) [9]: 2 (MIC100 of 11-20 μg/ml)
Cc1[nH]c(-c2ccc(-c3ccccc3OC(F)(F)F)o2)nc1-c1ccc(Cl)cc1 [compound 24] | 20 to 50 (≈ 47.8 to 119 µM) |  | 1 to 3 (≈ 2.39 to 7.16 µM) |  |  | 20 to 50 (≈ 47.8 to 119 µM) |  | 1 to 3 (≈ 2.39 to 7.16 µM) | 11 to 20 (≈ 26.3 to 47.8 µM) | 1 to 3 (≈ 2.39 to 7.16 µM) |  | 
Cc1[nH]c(-c2ccc(-c3ccc(Cl)cc3)s2)nc1-c1ccccc1 [compound 6] |  |  |  | 3 (MIC100 of 2-5 μg/ml) |  |  |  |  |  |  | 2 (MIC100 of 11-20 μg/ml) | MIC [15]: 11 to 20 µg/mL (≈ 31.4 to 57 µM)
Cc1nc(-c2ccc(-c3ccc(C(F)(F)F)cc3)o2)[nH]c1-c1ccccc1 [compound 45] |  |  | 1 to 3 (≈ 2.71 to 8.14 µM) |  | < 1 | 20 to 50 (≈ 54.3 to 136 µM) |  | 1 to 3 (≈ 2.71 to 8.14 µM) |  |  |  | MIC [16]: 1 to 3 µg/mL (≈ 2.71 to 8.14 µM)
Cc1nc(-c2ccc(-c3ccc(Cl)cc3C(F)(F)F)o2)[nH]c1-c1ccccc1 [compound 32] |  | 20 to 50 (≈ 49.7 to 124 µM) |  | 3 (MIC100 of 2-5 μg/ml) | 2 to 5 (≈ 4.97 to 12.4 µM) |  |  |  |  |  |  | MIC [15]: 3 to 10 µg/mL (≈ 7.45 to 24.8 µM)
Cc1nc(-c2ccc(-c3cccc(OC(F)(F)F)c3)o2)[nH]c1-c1ccccc1 [compound 34] | 20 to 50 (≈ 52 to 130 µM) | 20 to 50 (≈ 52 to 130 µM) |  | 3 (MIC100 of 2-5 μg/ml) | 2 to 5 (≈ 5.2 to 13 µM) |  | 3 to 10 (≈ 7.81 to 26 µM) |  | 11 to 20 (≈ 28.6 to 52 µM) | 3 to 10 (≈ 7.81 to 26 µM) | 2 (MIC100 of 11-20 μg/ml) | 
Cc1[nH]c(-c2ccc(-c3ccc(C(F)(F)F)c(Cl)c3)o2)nc1-c1ccc(F)cc1 [compound 49] | 11 to 20 (≈ 26.1 to 47.5 µM) |  | 1 to 3 (≈ 2.38 to 7.13 µM) | 3 (MIC100 of 2-5 μg/ml) | 2 to 5 (≈ 4.75 to 11.9 µM) |  |  |  |  | 1 to 3 (≈ 2.38 to 7.13 µM) |  | MIC ([2]; Enterococcus faecium, ATCC51559, read-out: Antibacterial activity, VREFm (vancomycin-resistant EFm), MIC class): 20 to 50 µg/mL (≈ 47.5 to 119 µM); Antibacterial activity Staphylococcus aureus (MSSA) [9]: 3 (MIC100 of 3-10 μg/ml); MIC ([6]; Enterococcus faecalis, ATCC51575, read-out: Antibacterial activity, VREFs (vancomycin-resistant EFs), MIC class): 20 to 50 µg/mL (≈ 47.5 to 119 µM); Antibacterial activity Staphylococcus aureus (MRSA) [17]: 2 (MIC100 of 11-20 μg/ml); MIC [7]: 20 to 50 µg/mL (≈ 47.5 to 119 µM); MIC [16]: 11 to 20 µg/mL (≈ 26.1 to 47.5 µM); MIC [8]: 11 to 20 µg/mL (≈ 26.1 to 47.5 µM)
Cc1nc(-c2ccc(-c3ccc(Cl)cc3Cl)o2)[nH]c1-c1ccccc1 [compound 1] |  | 20 to 50 (≈ 54.2 to 135 µM) |  |  |  |  | 3 to 10 (≈ 8.12 to 27.1 µM) |  | 3 to 10 (≈ 8.12 to 27.1 µM) |  | 2 (MIC100 of 11-20 μg/ml) | 
